The values below come from PubChem BioAssay AID328 (DTP/NCI, 2004).

For the experiment, the system named is BDF1 mice, P388 leukemia ip, median survival T/C. The experiment is described as follows: NCI In Vivo Anticancer Drug Screen. Data for tumor model P388 Leukemia (intraperitoneal) in B6D2F1 (BDF1) mice. As to conditions: endpoint: median survival time, higher = longer survival. The gist of the method: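 Steps: implant the tumour, treat one group with compound and another with vehicle, record survival, then divide treated by control.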

[1] abbreviates: dose: 6.25 mg/kg/injection, schedule: Q01DX009 (ip), vehicle: saline.
Where [2] appears, read: dose: 50.0 mg/kg/injection, schedule: Q01DX009 (ip), vehicle: saline with Tween-80.
[3] abbreviates: dose: 100.0 mg/kg/injection, schedule: Q01DX009 (ip), vehicle: saline with Tween-80.
The mark [4] stands for this setting: dose: 200.0 mg/kg/injection, schedule: Q01DX009 (ip), vehicle: saline with Tween-80.
Setting [5] is: dose: 50.0 mg/kg/injection, schedule: Q04DX003 (ip), vehicle: saline.
[6] abbreviates: dose: 25.0 mg/kg/injection, schedule: Q01DX009 (ip), vehicle: saline with Tween-80.
The mark [7] stands for this setting: dose: 25.0 mg/kg/injection, schedule: Q01DX009 (ip), vehicle: saline.
The mark [8] stands for this setting: dose: 25.0 mg/kg/injection, schedule: Q04DX003 (ip), vehicle: saline.
The mark [9] stands for this setting: dose: 50.0 mg/kg/injection, schedule: Q01DX009 (ip), vehicle: saline.
The mark [10] stands for this setting: dose: 50.0 mg/kg/injection, schedule: Q04DX003 (ip), vehicle: saline with Tween-80.
Setting [11] is: dose: 6.25 mg/kg/injection, schedule: Q01DX009 (ip), vehicle: Klucel (hydroxypropylcellulose) (HPC).
[12] abbreviates: dose: 12.5 mg/kg/injection, schedule: Q01DX009 (ip), vehicle: Klucel (hydroxypropylcellulose) (HPC).
[13] abbreviates: dose: 100.0 mg/kg/injection, schedule: Q01DX009 (ip), vehicle: saline.

Each structure is given as a SMILES string. Several values for one entry are separate records, joined by “and”; a condition that tells them apart may be missing. Equal entries are not always repeated. Inconclusive results and toxic doses are left out.

`Cc1cccc2cc3cccc[n+]3cc12`: the T/C reads like this: (dose: 1.56 mg/kg/injection, schedule: Q01DX009 (ip), vehicle: saline) 104 % of control; (dose: 3.12 mg/kg/injection, schedule: Q01DX009 (ip), vehicle: saline) 104 % of control; under setting [1], 109 % of control; (dose: 6.75 mg/kg/injection, schedule: Q04DX003 (ip), vehicle: saline) 105 % of control; (dose: 9.2 mg/kg/injection, schedule: Q01DX009 (ip), vehicle: saline) 109 % of control; (dose: 13.5 mg/kg/injection, schedule: Q04DX003 (ip), vehicle: saline) 90 % of control.
Consider `O=C(Nc1cccc(Br)c1)N1c2ccccc2SC12CCCC2`, for which the T/C runs as follows: under setting [2], 89 % of control; under setting [3], 97 % of control; under setting [4], 106 % of control.
For the compound `NC(Cc1cccc(NP(=S)(N2CC2)N2CC2)c1)C(=O)O` (stereo not drawn), the T/C runs as follows: (dose: 22.0 mg/kg/injection, schedule: Q04DX003 (ip), vehicle: saline) 120 % of control; (dose: 35.0 mg/kg/injection, schedule: Q04DX003 (ip), vehicle: saline) 112 % of control; under setting [5], 150 % of control; (dose: 115.0 mg/kg/injection, schedule: Q04DX003 (ip), vehicle: saline) 172 % of control; (dose: 175.0 mg/kg/injection, schedule: Q04DX003 (ip), vehicle: saline) 268 % of control; (dose: 264.0 mg/kg/injection, schedule: Q04DX003 (ip), vehicle: saline) 272 % of control. In addition, the T/C reads like this: (dose: 400.0 mg/kg/injection, schedule: Q04DX003 (ip), vehicle: saline) 272 % of control; (dose: 600.0 mg/kg/injection, schedule: Q04DX003 (ip), vehicle: saline) 86 % of control.
For `O=C(O)CN=Cc1ccccc1O.O=C(O)CN=Cc1ccccc1O.[Fe]`, the T/C is 100 % of control (dose: 6.25 mg/kg/injection, schedule: Q01DX009 (ip), vehicle: saline with Tween-80); 106 % of control under setting [1]; 100 % of control (dose: 6.25 mg/kg/injection, schedule: Q04DX003 (ip), vehicle: saline); 100 % of control (dose: 12.5 mg/kg/injection, schedule: Q01DX009 (ip), vehicle: saline with Tween-80); 115 % of control (dose: 12.5 mg/kg/injection, schedule: Q01DX009 (ip), vehicle: saline); 100 % of control (dose: 12.5 mg/kg/injection, schedule: Q04DX003 (ip), vehicle: saline). Also, the T/C is 100 % of control and 110 % of control under setting [6]; 90 % of control under setting [7]; 100 % of control (dose: 25.0 mg/kg/injection, schedule: Q04DX003 (ip), vehicle: saline with Tween-80); 95 % of control under setting [8]; 100 % of control under setting [2]; 86 % of control under setting [9]. Further, the T/C under setting [10] was 86 % of control.
Consider `CCOC(=O)CC(C)=O.[Cu+2]`, for which the T/C by setting is: under setting [11], 100 % of control; under setting [12], 90 % of control.
As to `O=C(Nc1ccccc1)c1ccc(C(F)(F)F)cc1O`, the T/C is, setting by setting: (dose: 16.5 mg/kg/injection, schedule: Q01DX009 (ip), vehicle: saline) 99 % of control; under setting [7], 93 % of control; (dose: 35.0 mg/kg/injection, schedule: Q01DX009 (ip), vehicle: saline) 112 % of control; under setting [13], 108 % of control; (dose: 200.0 mg/kg/injection, schedule: Q01DX009 (ip), vehicle: saline) 95 % of control.
Turning to `Cc1c(C#N)c2nc(C(=O)c3ccc(Br)cc3)cc(-c3ccc(Br)cc3)n2c1C`, the T/C under setting [6] is 109 % of control; the T/C under setting [2] was 104 % of control; the T/C under setting [10] was 87 % of control; the T/C under setting [3] is 104 % of control; the T/C (dose: 100.0 mg/kg/injection, schedule: Q04DX003 (ip), vehicle: saline with Tween-80) was 91 % of control; the T/C under setting [4] is 109 % of control. Also, the T/C runs as follows: (dose: 200.0 mg/kg/injection, schedule: Q04DX003 (ip), vehicle: saline with Tween-80) 87 % of control; (dose: 400.0 mg/kg/injection, schedule: Q04DX003 (ip), vehicle: saline with Tween-80) 87 % of control.
With `CC(=O)Oc1ccc2c(c1)C(=O)C(Br)C1C2CCC2(C)C(OC(C)=O)CCC12` (stereo not drawn), the T/C by setting is: (dose: 50.0 mg/kg/injection, schedule: Q01DX010 (sc), vehicle: steriod suspending solution) 95 % of control; (dose: 400.0 mg/kg/injection, schedule: Q01DX010 (sc), vehicle: steriod suspending solution) 90 % of control.
With `O=C(C[N+]12CN3CN(CN(C3)C1)C2)c1ccc(Cl)cc1`, the T/C was 100 % of control under setting [8]; 104 % of control (dose: 44.0 mg/kg/injection, schedule: Q04DX003 (ip), vehicle: saline sonified); 107 % of control under setting [2]; 110 % of control under setting [5]; 118 % of control (dose: 66.0 mg/kg/injection, schedule: Q04DX003 (ip), vehicle: saline sonified); 119 % of control under setting [3]. Besides, under setting [4], the T/C is 119 % of control.
Take `NC(CC1=CCC=CC1)C(=O)O` (stereo not drawn): the T/C by setting is: under setting [9], 96 % of control and 113 % of control; under setting [13], 117 % of control.
For the compound `CN(C)CC/C=C1\c2ccccc2C(C)(C)c2ccc(Cl)cc21`, the T/C is, setting by setting: (dose: 6.0 mg/kg/injection, schedule: Q04DX003 (ip), vehicle: saline with Tween-80) 95 % of control; under setting [11], 100 % of control; (dose: 11.0 mg/kg/injection, schedule: Q04DX003 (ip), vehicle: saline with Tween-80) 104 % of control; under setting [12], 111 % of control; (dose: 16.5 mg/kg/injection, schedule: Q01DX009 (ip), vehicle: Klucel (hydroxypropylcellulose) (HPC)) 90 % of control and 100 % of control; (dose: 22.0 mg/kg/injection, schedule: Q04DX003 (ip), vehicle: saline with Tween-80) 104 % of control. Besides, the T/C runs as follows: (dose: 25.0 mg/kg/injection, schedule: Q01DX009 (ip), vehicle: Klucel (hydroxypropylcellulose) (HPC)) 88 % of control and 100 % of control; (dose: 33.0 mg/kg/injection, schedule: Q04DX003 (ip), vehicle: saline with Tween-80) 100 % of control and 104 % of control; (dose: 37.5 mg/kg/injection, schedule: Q01DX009 (ip), vehicle: Klucel (hydroxypropylcellulose) (HPC)) 90 % of control and 92 % of control; under setting [10], 110 % of control and 112 % of control; (dose: 55.0 mg/kg/injection, schedule: Q01DX009 (ip), vehicle: Klucel (hydroxypropylcellulose) (HPC)) 95 % of control; (dose: 75.0 mg/kg/injection, schedule: Q04DX003 (ip), vehicle: saline with Tween-80) 115 % of control and 120 % of control. For the same compound, the T/C by setting is: (dose: 85.0 mg/kg/injection, schedule: Q01DX009 (ip), vehicle: Klucel (hydroxypropylcellulose) (HPC)) 87 % of control; (dose: 125.0 mg/kg/injection, schedule: Q01DX009 (ip), vehicle: Klucel (hydroxypropylcellulose) (HPC)) 95 % of control.
As for `CCC[CH2][Sn]1([CH2]CCC)[N](S(=O)(=O)c2ccc(C)cc2)c2ccccc2[N]1S(=O)(=O)c1ccc(C)cc1`, the T/C (dose: 1.5 mg/kg/injection, schedule: Q01DX009 (ip), vehicle: Klucel (hydroxypropylcellulose) (HPC)) was 91 % of control; the T/C (dose: 6.0 mg/kg/injection, schedule: Q01DX009 (ip), vehicle: Klucel (hydroxypropylcellulose) (HPC)) was 150 % of control; the T/C (dose: 12.0 mg/kg/injection, schedule: Q01DX009 (ip), vehicle: Klucel (hydroxypropylcellulose) (HPC)) was 176 % of control.
